Key:
[1] = tested on: γ-glutamylcysteine transferase; test: KM of γ-glutamylcysteine transferase for its substrates; assay type: biochemical, Silene cucubalus; conditions: 30° C. and pH=7.8
[2] = tested on: γ-glutamylcysteine transferase

Km [1]	Compound	reversibility of the inhibition ([2]; after removal of EDTA and addition of heavy metal ions)	inhibition in the presence of EDTA ([2]; in the presence of ethylenediaminetetraacetic acid)
1 mM	Cc1c(C)n2c(CSC[C@H](NC(=O)CC[C@H](N)C(=O)O)C(=O)NCC(=O)O)c(C)c(=O)n2c1=O [glutathione S-biman]	–	–
–	O=C(O)CN(CCN(CC(=O)O)CC(=O)O)CC(=O)O [ethylenediaminetetraacetic acid (EDTA), ethylenediaminetetraacetic acid]	reversible	complete inhibition
6.8 mM	N[C@@H](CCC(=O)N[C@@H](CS)C(=O)NCC(=O)O)C(=O)O [glutathione]	–	–
